# Test results as given in PubChem BioAssay (NCI).
#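 48-hour exposure; five concentrations; linearly interpolated endpoints. GI50 = concentration required for 50% inhibition of growth. TGI is the concentration that stops growth completely.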
# How the values were obtained:
# Test in all cases: inhibition of tumour cell growth, NCI panel, 48 h
# A498 renal = test system: A498 renal
# SNB-19 CNS = test system: SNB-19 CNS
# SF-268 CNS = test system: SF-268 CNS
# SR leukemia = test system: SR leukemia
# HS 578T breast = test system: HS 578T breast
# KM12 colon = test system: KM12 colon
# EKVX NSCLC = test system: EKVX NSCLC
# DU-145 prostate = test system: DU-145 prostate
# NCI/ADR-RES ovarian = test system: NCI/ADR-RES ovarian
# HCC-2998 colon = test system: HCC-2998 colon
# 786-0 renal = test system: 786-0 renal
# NCI-H226 lung = test system: NCI-H226 lung
# UACC-62 melanoma = test system: UACC-62 melanoma
# SW-620 colon = test system: SW-620 colon
# HOP-92 NSCLC = test system: HOP-92 NSCLC
# SF-539 CNS = test system: SF-539 CNS
# UO-31 renal = test system: UO-31 renal
# COLO 205 colon = test system: COLO 205 colon
# NCI-H23 lung = test system: NCI-H23 lung
# SN12C renal = test system: SN12C renal
# OVCAR-8 ovarian = test system: OVCAR-8 ovarian
# RXF 393 renal = test system: RXF 393 renal
# SF-295 CNS = test system: SF-295 CNS
# HT29 colon = test system: HT29 colon
# TK-10 renal = test system: TK-10 renal
# HOP-62 NSCLC = test system: HOP-62 NSCLC
# MDA-MB-231 breast = test system: MDA-MB-231 breast
# HCT-116 colon = test system: HCT-116 colon
smiles,measurement,setting,value
c1ccc(CC(Cc2ccccc2)C2=NCCCN2)cc1,GI50,A498 renal,1.84 µM
same,TGI,A498 renal,33.2 µM
same,GI50,SNB-19 CNS,3.49 µM
same,TGI,SNB-19 CNS,> 100 µM
same,GI50,SF-268 CNS,5.25 µM
same,TGI,SF-268 CNS,> 100 µM
same,GI50,SR leukemia,3.78 µM
same,TGI,SR leukemia,> 100 µM
same,GI50,HS 578T breast,4.07 µM
same,TGI,HS 578T breast,> 100 µM
same,GI50,KM12 colon,3.26 µM
same,TGI,KM12 colon,> 100 µM
same,GI50,EKVX NSCLC,6.96 µM
same,TGI,EKVX NSCLC,> 100 µM
same,GI50,DU-145 prostate,3.36 µM
same,TGI,DU-145 prostate,9.75 µM
same,GI50,NCI/ADR-RES ovarian,2.99 µM
same,TGI,NCI/ADR-RES ovarian,> 100 µM
same,GI50,HCC-2998 colon,3.08 µM
same,TGI,HCC-2998 colon,9.35 µM
same,GI50,786-0 renal,4.26 µM
same,TGI,786-0 renal,> 100 µM
same,GI50,NCI-H226 lung,2.48 µM
same,TGI,NCI-H226 lung,7.47 µM
same,GI50,UACC-62 melanoma,4.22 µM
same,TGI,UACC-62 melanoma,> 100 µM
same,GI50,SW-620 colon,3.94 µM
same,TGI,SW-620 colon,> 100 µM
same,GI50,HOP-92 NSCLC,4.52 µM
same,TGI,HOP-92 NSCLC,64.6 µM
same,GI50,SF-539 CNS,3.37 µM
same,TGI,SF-539 CNS,> 100 µM
same,GI50,UO-31 renal,7.83 µM
same,TGI,UO-31 renal,> 100 µM
same,GI50,COLO 205 colon,3.49 µM
same,TGI,COLO 205 colon,12.4 µM
same,GI50,NCI-H23 lung,3.48 µM
same,TGI,NCI-H23 lung,> 100 µM
same,GI50,SN12C renal,4.18 µM
same,TGI,SN12C renal,> 100 µM
same,GI50,OVCAR-8 ovarian,3.21 µM
same,TGI,OVCAR-8 ovarian,> 100 µM
same,GI50,RXF 393 renal,2.82 µM
same,TGI,RXF 393 renal,> 100 µM
same,GI50,SF-295 CNS,3.32 µM
same,TGI,SF-295 CNS,> 100 µM
same,GI50,HT29 colon,3.48 µM
same,TGI,HT29 colon,> 100 µM
same,GI50,TK-10 renal,7.57 µM
same,TGI,TK-10 renal,> 100 µM
same,GI50,HOP-62 NSCLC,4.83 µM
same,TGI,HOP-62 NSCLC,> 100 µM
same,GI50,MDA-MB-231 breast,5.37 µM
same,TGI,MDA-MB-231 breast,> 100 µM
same,GI50,HCT-116 colon,3.71 µM
